pIC50: −log10 of the molar value. Active and inactive are the calls of the source. No cut-off for these calls is given here.

Assay [1] concerns the target Human immunodeficiency virus type 1 integrase (Human immunodeficiency virus 1) (UniProt Q7ZJM1). Put plainly: Inhibition of HIV1 integrase long terminal repeat cleavage activity at […].
The target is the same in assay [2]. Put plainly: Inhibition of HIV1 integrase strand transfer activity at […].
For assay [3], the target named is T1, Human immunodeficiency virus type 1 integrase (Human immunodeficiency virus 1, UniProt Q7ZJM1). Briefly: Inhibition of HIV1 integrase long terminal repeat cleavage activity.
The target of assay [4] is T1, Human immunodeficiency virus type 1 integrase. Put plainly: Inhibition of HIV1 integrase strand transfer activity.

T1 sequence (Q7ZJM1 whole entry): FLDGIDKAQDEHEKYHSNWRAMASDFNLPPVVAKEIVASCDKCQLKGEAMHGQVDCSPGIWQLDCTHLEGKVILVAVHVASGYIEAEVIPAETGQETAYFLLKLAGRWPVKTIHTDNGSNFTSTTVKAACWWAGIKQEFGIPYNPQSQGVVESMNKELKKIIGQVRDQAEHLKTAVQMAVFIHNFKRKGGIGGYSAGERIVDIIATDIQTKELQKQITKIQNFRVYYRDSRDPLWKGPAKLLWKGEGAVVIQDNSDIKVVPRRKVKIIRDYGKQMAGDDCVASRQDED
Chain of Human immunodeficiency virus type 1 integrase (Human immunodeficiency virus 1) (Q7ZJM1 as listed by the source): as the sequence (Q7ZJM1 whole entry) above

Take `CCC(C)[C@@H]1NC(=O)c2csc(n2)CNC(=O)c2csc(n2)[C@H](CCC(N)=O)NC(=O)[C@H](CC(C)C)NC(=O)[C@@H]2CCCN2C1=O` (some centres undefined): the outcome in assay [1] and in assay [2] was inactive.

Consider `CC(C)C[C@@H]1NC(=O)[C@@H]2CCCN2C(=O)[C@H](C(C)C)NC(=O)c2csc(n2)CNC(=O)c2csc(n2)[C@H](CCC(N)=O)NC1=O` [DOLASTATIN 3], for which the pIC50 is 2.30 in assay [3] and 2.39 in assay [4].

One may read the pIC50 as the IC50 on a negative log10 scale, so that one unit is a factor of ten. Read a low pIC50 as a high IC50.

Source of the values: ChEMBL document CHEMBL1155683, “Dolastatin 3 and two novel cyclic peptides from a palauan collection of Lyngbya majuscula” (J Nat Prod, 2000).
